Values quoted from earlier work in patent US20180295833A1, “METHOD FOR SUPPRESSION OF OR PROTECTION FROM ISCHEMIA/REPERFUSION INJURY OF ORGANS FOR TRANSPLANTATION” (MiZ Company Limited, priority 2017, published 2018).

Details: normal temperature and normal pressure of 15° C. to 25° C. and 1 atm

For `[HH]` [molecular hydrogen], the “saturation concentration of molecular hydrogen” value is listed as 1.6 ppm.
